Measurements as given in patent US20220056014A1, “PHENYLPYRROLIDINE COMPOUND AND USE THEREOF” (WUHAN HUMANWELL INNOVATIVE DRUG RESEARCH AND DEVELOPMENT …, priority 2018, published 2022).

Key:
PDE4B = target: T1, PDE4B (Homo sapiens, UniProt Q07343); assay: PDE4B enzyme activity assay (PDE-Glo Phosphodiesterase Assay Kit); assay type: biochemical; conditions: for IC50 (PDE4D)/IC50 (PDE4B): selectivity ratio
T1 construct: purchased Enzo Life Sciences BML-SE522-0020
Protocol: (§1) For the previously synthesized compounds, the inhibitory activity of the compounds against PDE4B and against PDE4D was tested by using PDE-Glo Phosphodiesterase Assay Kit (promega, V1361). In short, in accordance with the instructions of the kit, a concentrated stock solution (10 mM) the compound to be tested was first prepared with DMSO solvent, and the concentrated stock solution was then diluted into 10× working solutions with a Reaction buffer provided in the kit. With the Reaction buffer, on ice, PDE4B enzyme (Enzo Life Sciences, BML-SE522-0020) was diluted to a concentration of 1 ng/μl to obtain a PDE4B enzyme working solution, and PDE4D enzyme (Enzo Life Sciences, BML-SE523-0020) was diluted to a concentration of 4 ng/μl to obtain a PDE4D enzyme working solution. 1.5 μl of the PDE4B working solution (or PDE4D working solution) and 1 μl of the compound working solution were added to wells of 384-well plate (Corning, CLS3707), and incubated with shaking at room temperature for 5 min, followed by adding 2.5 μl of cAMP (in Reaction buffer, 2 μM) per well, incubating with shaking at room temperature for 20 min. 2.5 μl/well of 1× Termination Buffer, and then 2.5 μl/well of 1× Detection Buffer were added, and further incubated with shaking at room temperature for 20 min. 10 μl/well of 1× Kinase-Glo was added, and the plate was incubated with shaking at room temperature for 10 min, and bioluminescence was measured with PheraStar instrument. The experimental results were plotted with GraphPad Prism software, and fitted to calculate IC50 of each compound.

[1] = test system: LPS-induced secretion of TNFα in human PBMCs; assay: LPS-induced secretion of TNFα in human PBMCs; assay type: cell-based; conditions: 24 h, LPS 10 ng/ml
Protocol: Extraction process of peripheral blood mononuclear cells (PBMCs): one unit of human peripheral blood concentrate (concentrated from 200 cc peripheral blood) was sucked and added with 0.9% saline until a total volume reached 120 ml, and mixed homogenously. 15 ml Lymphoprep™ was added into 50 ml centrifuge tube, and then 30 ml of diluted blood concentrate was carefully and slowly added thereto, allowing the diluted blood to be stacked on the layered solution and preventing the diluted blood from being mixed into the separated solutions or breaking the surface of the separated solution, wherein a ratio of Lymphoprep™ to the diluted blood was 1:2. The centrifuge tubes were balanced and placed in a horizontal centrifuge (eppendorf, 5810R), and centrifuged at 800 g and 20° C. for 20 min. The centrifuge tubes were carefully taken out. PBMCs were absorbed by directly inserting the Pasteur pipette deep into the buffy coat. The obtained PBMCs were gently pipetted with 3 times the volume of 0.9% normal saline or PBS (without calcium or magnesium ions) to mix homogenously. After that, the cells were centrifuged at 250 g and 20° C. for 10 min, the supernatant was removed to remove the platelets remaining in the cell suspension. The obtained cell pellet was resuspended in 20 ml of PBS, and counted using trypan blue.
Compound screening by using PBMCs: the PBMC suspension obtained above was centrifuged to remove PBS, then resuspended in complete medium (RPMI1640+10% FBS+1% P/S) and counted. 100 μL/well of the cells was seeded at 5×10^4/well. Each of the compounds to be screened was prepared as 4 times the final concentration, which was added to the cells at 50 μL/well. The compound was pre-incubated for 30 min in advance of being added to the cells. Meanwhile, control wells to which the compound was not added were provided. A final stimulation concentration of LPS was 10 ng/ml, and LPS was formulated as 4 times the final stimulation concentration, and added to the cells at 50 μL/well. Meanwhile, control wells, i.e., wells without LPS were provided. The cells were incubated for 24 h, and 10% of the supernatant was collected for detection. The obtained supernatant was detected using Invitrogen's Human TNF-α kit (REF: 88-7346-88).

PDE4D = target: T2, PDE4D (Homo sapiens, UniProt Q08499); assay: PDE4D enzyme activity assay (PDE-Glo Phosphodiesterase Assay Kit); assay type: biochemical
T2 construct: purchased Enzo Life Sciences BML-SE523-0020
T2 sequence (Q08499 whole entry): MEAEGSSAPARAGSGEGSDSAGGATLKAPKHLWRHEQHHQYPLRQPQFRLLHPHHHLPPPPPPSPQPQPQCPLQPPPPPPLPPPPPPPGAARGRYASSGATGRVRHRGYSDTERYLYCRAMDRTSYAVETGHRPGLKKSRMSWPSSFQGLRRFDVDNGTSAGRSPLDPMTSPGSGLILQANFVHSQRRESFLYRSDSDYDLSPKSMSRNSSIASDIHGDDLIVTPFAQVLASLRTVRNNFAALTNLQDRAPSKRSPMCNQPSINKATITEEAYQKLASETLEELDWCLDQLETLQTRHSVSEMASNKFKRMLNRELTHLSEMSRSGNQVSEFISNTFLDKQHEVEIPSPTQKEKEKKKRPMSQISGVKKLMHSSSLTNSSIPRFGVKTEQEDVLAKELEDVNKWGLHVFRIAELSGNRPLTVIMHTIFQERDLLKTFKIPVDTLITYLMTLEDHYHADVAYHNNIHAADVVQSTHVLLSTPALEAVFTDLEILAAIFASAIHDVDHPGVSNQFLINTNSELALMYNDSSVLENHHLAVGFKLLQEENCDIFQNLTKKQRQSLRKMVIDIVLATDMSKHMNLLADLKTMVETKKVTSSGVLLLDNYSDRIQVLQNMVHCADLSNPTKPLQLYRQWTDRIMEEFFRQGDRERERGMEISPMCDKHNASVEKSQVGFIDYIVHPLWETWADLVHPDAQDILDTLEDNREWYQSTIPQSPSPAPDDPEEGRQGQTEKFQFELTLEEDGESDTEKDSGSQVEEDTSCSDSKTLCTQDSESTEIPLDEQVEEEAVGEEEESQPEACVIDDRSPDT
Protocol: as §1

T1 sequence (Q07343 whole entry): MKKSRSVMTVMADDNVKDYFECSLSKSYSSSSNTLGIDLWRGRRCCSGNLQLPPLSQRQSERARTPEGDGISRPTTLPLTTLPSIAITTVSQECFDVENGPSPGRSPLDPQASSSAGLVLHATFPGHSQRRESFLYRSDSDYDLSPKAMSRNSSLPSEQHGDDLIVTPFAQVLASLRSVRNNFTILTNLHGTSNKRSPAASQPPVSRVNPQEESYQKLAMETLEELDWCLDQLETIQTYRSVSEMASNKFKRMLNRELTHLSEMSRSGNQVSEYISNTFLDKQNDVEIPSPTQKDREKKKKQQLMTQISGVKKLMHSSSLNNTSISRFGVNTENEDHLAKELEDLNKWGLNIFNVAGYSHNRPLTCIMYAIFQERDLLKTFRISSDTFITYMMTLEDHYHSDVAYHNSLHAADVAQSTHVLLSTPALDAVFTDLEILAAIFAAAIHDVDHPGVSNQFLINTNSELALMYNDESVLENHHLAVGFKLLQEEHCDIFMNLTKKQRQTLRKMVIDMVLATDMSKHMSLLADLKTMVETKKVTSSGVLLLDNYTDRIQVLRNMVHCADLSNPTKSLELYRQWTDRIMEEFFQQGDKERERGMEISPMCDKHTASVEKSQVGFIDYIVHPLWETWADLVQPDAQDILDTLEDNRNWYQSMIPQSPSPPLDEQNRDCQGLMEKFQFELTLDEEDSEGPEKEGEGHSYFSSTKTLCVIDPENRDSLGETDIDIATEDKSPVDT

SMILES | IC50 (PDE4B) [nM] | IC50 ([1]; Homo sapiens, PBMC) [nM] | inhibition of PDE4B (in words) (PDE4B) | selective inhibitory activity against PDE4B versus PDE4D, compared with the positive control compound (in words) (PDE4B) | other results
COc1ccc([C@@H]2CN(C(=O)[C@@H](O)CO)C[C@@]2(C)[C@@H](C)O)cc1OC1CN(c2ccc(F)c(C)n2)C1 [Compound 026, (S)-1-((3S,4S)-4-(3-((1-(5-fluoro-6-methylpyridin-2-yl)azetidin-3-yl)oxy)-4-methoxyphenyl)-3-((R)-1-hydroxyethyl)-3-methylpyrrolidin-1-yl)-2,3-dihydroxypropan-1-one] | 2.76 | 14.9 | – | – | –
CCc1cnc(N2CC(Oc3cc([C@@H]4CN(C(=O)[C@@H](O)CO)C[C@@]4(C)[C@@H](C)O)ccc3OC)C2)cc1C [Compound 030, (S)-1-((3S,4S)-4-(3-((1-(5-ethyl-4-methylpyridin-2-yl)azetidin-3-yl)oxy)-4-methoxyphenyl)-3-((R)-1-hydroxyethyl)-3-methylpyrrolidin-1-yl)-2,3-dihydroxypropan-1-one] | – | – | effectively inhibit PDE4B | significantly higher than that control compound | –
COc1ccc([C@@H]2CN(C(=O)[C@@H](O)CO)C[C@@]2(C)[C@@H](C)O)cc1OC1CN(c2cnc(C#N)cn2)C1 [Compound 019, 5-(3-(5-((3S,4S)-1-((S)-2,3-dihydroxypropanoyl)-4-((R)-1-hydroxyethyl)-4-methylpyrrolidin-3-yl)-2-methoxyphenoxy)azetidin-1-yl)pyrazine-2-carbonitrile] | 1.87 | – | – | – | –
COc1ccc([C@@H]2CN(C(=O)[C@@H](O)CO)C[C@@]2(C)[C@@H](C)O)cc1OC1CN(c2cc(C)c(F)cn2)C1 [Compound 025, (S)-1-((3S,4S)-4-(3-((1-(5-fluoro-4-methylpyridin-2-yl)azetidin-3-yl)oxy)-4-methoxyphenyl)-3-((R)-1-hydroxyethyl)-3-methylpyrrolidin-1-yl)-2,3-dihydroxypropan-1-one] | 0.88 | 3.26 | – | – | IC50 (PDE4D)/IC50 (PDE4B) (PDE4B): 2.45; IC50 (PDE4D): 2.16 nM
COc1ccc([C@@H]2CN(C(=O)[C@@H](O)CO)C[C@@]2(C)[C@@H](C)O)cc1OC1CN(c2ncc(C)cn2)C1 [Compound 016, (S)-2,3-dihydroxy-1-((3S,4S)-3-((R)-1-hydroxyethyl)-4-(4-methoxy-3-((1-(5-methylpyrimidin-2-yl)azetidin-3-yl)oxy)phenyl)-3-methylpyrrolidin-1-yl)propan-1-one] | – | – | effectively inhibit PDE4B | significantly higher than that control compound | –
COc1ccc([C@@H]2CN(C(=O)[C@@H](O)CO)C[C@@]2(C)[C@@H](C)O)cc1OC1CN(c2ccc(C#N)c(C)n2)C1 [Compound 013, 6-(3-(5-((3S,4S)-1-((S)-2,3-dihydroxypropanoyl)-4-((R)-1-hydroxyethyl)-4-methylpyrrolidin-3-yl)-2-methoxyphenoxy)azetidin-1-yl)-2-methylnicotinonitrile] | – | – | effectively inhibit PDE4B | significantly higher than that control compound | –
CCc1nc(N2CC(Oc3cc([C@@H]4CN(C(=O)[C@@H](O)CO)C[C@@]4(C)[C@@H](C)O)ccc3OC)C2)ccc1C [Compound 027, (S)-1-((3S,4S)-4-(3-((1-(6-ethyl-5-methylpyridin-2-yl)azetidin-3-yl)oxy)-4-methoxyphenyl)-3-((R)-1-hydroxyethyl)-3-methylpyrrolidin-1-yl)-2,3-dihydroxypropan-1-one] | 14.3 | – | – | – | IC50 (PDE4D)/IC50 (PDE4B) (PDE4B): 1.73; IC50 (PDE4D): 24.8 nM
COc1ccc([C@@H]2CN(C(=O)[C@@H](O)CO)C[C@@]2(C)[C@@H](C)O)cc1OC1CN(c2ncc(C)cc2Cl)C1 [Compound 005, (S)-1-((3S,4S)-4-(3-((1-(3-chloro-5-methylpyridin-2-yl)azetidin-3-yl)oxy)-4-methoxyphenyl)-3-((R)-1-hydroxyethyl)-3-methylpyrrolidin-1-yl)-2,3-dihydroxypropan-1-one] | – | 6.18 | effectively inhibit PDE4B | significantly higher than that control compound | –
CCc1ccc(N2CC(Oc3cc([C@@H]4CN(C(=O)[C@@H](O)CO)C[C@@]4(C)[C@@H](C)O)ccc3OC)C2)nc1C [Compound 029, (S)-1-((3S,4S)-4-(3-((1-(5-ethyl-6-methylpyridin-2-yl)azetidin-3-yl)oxy)-4-methoxyphenyl)-3-((R)-1-hydroxyethyl)-3-methylpyrrolidin-1-yl)-2,3-dihydroxypropan-1-one] | – | – | effectively inhibit PDE4B | significantly higher than that control compound | –
COc1ccc(N2CC(Oc3cc([C@@H]4CN(C(=O)[C@@H](O)CO)C[C@@]4(C)[C@@H](C)O)ccc3OC)C2)cn1 [Compound 020, (S)-2,3-dihydroxy-1-((3S,4S)-3-((R)-1-hydroxyethyl)-4-(4-methoxy-3-((1-(6-methoxypyridin-3-yl)azetidin-3-yl)oxy)phenyl)-3-methylpyrrolidin-1-yl)propan-1-one] | 1.97 | 9.38 | – | – | –
COc1ccc([C@@H]2CN(C(=O)[C@@H](O)CO)C[C@@]2(C)[C@@H](C)O)cc1OC1CN(c2ncc(Cl)cc2C)C1 [Compound 023, (S)-1-((3S,4S)-4-(3-((1-(5-chloro-3-methylpyridin-2-yl)azetidin-3-yl)oxy)-4-methoxyphenyl)-3-((R)-1-hydroxyethyl)-3-methylpyrrolidin-1-yl)-2,3-dihydroxypropan-1-one] | 1.3 | 5.4 | – | – | –
COc1ccc([C@@H]2CN(C(=O)[C@@H](O)CO)C[C@@]2(C)[C@@H](C)O)cc1OC1CN(c2ncc(Cl)cc2F)C1 [Compound 024, (S)-1-((3S,4S)-4-(3-((1-(5-chloro-3-fluoropyridin-2-yl)azetidin-3-yl)oxy)-4-methoxyphenyl)-3-((R)-1-hydroxyethyl)-3-methylpyrrolidin-1-yl)-2,3-dihydroxypropan-1-one] | – | – | effectively inhibit PDE4B | significantly higher than that control compound | IC50 [1]: 6.56 nM
COc1ccc([C@@H]2CN(C(=O)[C@@H](O)CO)C[C@@]2(C)[C@@H](C)O)cc1OC1CN(c2ncc(Cl)cn2)C1 [Compound 018, (S)-1-((3S,4S)-4-(3-((1-(5-chloropyrimidin-2-yl)azetidin-3-yl)oxy)-4-methoxyphenyl)-3-((R)-1-hydroxyethyl)-3-methylpyrrolidin-1-yl)-2,3-dihydroxypropan-1-one] | – | – | effectively inhibit PDE4B | significantly higher than that control compound | –
CCc1cnc(N2CC(Oc3cc([C@@H]4CN(C(=O)[C@@H](O)CO)C[C@@]4(C)[C@@H](C)O)ccc3OC)C2)nc1 [Compound 017, (S)-1-((3S,4S)-4-(3-((1-(5-ethylpyrimidin-2-yl)azetidin-3-yl)oxy)-4-methoxyphenyl)-3-((R)-1-hydroxyethyl)-3-methylpyrrolidin-1-yl)-2,3-dihydroxypropan-1-one] | – | – | effectively inhibit PDE4B | significantly higher than that control compound | –
